Key:
Settings in all cases: Homo sapiens
SR = experiment: Tested for the cytotoxicity against the Leukemia cell line SR, growth inhibition by 50% is reported; format: functional
OVCAR-4 = experiment: Tested for the cytotoxicity against the Ovarian cancer cell line OVCAR-4, growth inhibition by 50% is reported; format: functional
HT-29 = experiment: Tested for the cytotoxicity against the colon cancer cell line HT29, growth inhibition by 50% is reported; format: functional
HCT-15 = experiment: Tested for the cytotoxicity against the colon cancer cell line HCT15, growth inhibition by 50% is reported; format: functional
LOX IMVI = experiment: Tested for the cytotoxicity against the Melanoma cell line LOXIMVI, growth inhibition by 50% is reported; format: functional
BT-549 = experiment: Tested for the cytotoxicity against the Breast cancer cell line BT-549, growth inhibition by 50% is reported; format: functional
CCRF-CEM = experiment: Tested for the cytotoxicity against the Leukemia cell line CCRF-CEM, growth inhibition by 50% is reported; format: functional
SF-268 = experiment: Tested for the cytotoxicity against the CNS cancer cell line SF-268, growth inhibition by 50% is reported; format: functional
CAKI-1 = experiment: Tested for the cytotoxicity against the Renal cancer cell line CAKI-1, growth inhibition by 50% is reported; format: functional
ACHN = experiment: Tested for the cytotoxicity against the Renal cancer cell line ACHN, growth inhibition by 50% is reported; format: functional
SF-539 = experiment: Tested for the cytotoxicity against the CNS cancer cell line SF-539, growth inhibition by 50% is reported; format: functional
NCI-H23 = experiment: Tested for the cytotoxicity against the Non-small cell lung cancer cell line NCI-H23, growth inhibition by 50% is reported
UACC-62 = experiment: Tested for the cytotoxicity against the Melanoma cell line UACC-62, growth inhibition by 50% is reported; format: functional
RPMI-8226 = experiment: Tested for the cytotoxicity against the Leukemia cell line RPMI8226, growth inhibition by 50% is reported; format: functional
HL-60 = experiment: Tested for the cytotoxicity against the Leukemia cell line HL60, growth inhibition by 50% is reported; format: functional
MDA-MB-435 = experiment: Tested for the cytotoxicity against the Breast cancer cell line MDAMB435, growth inhibition by 50% is reported; format: functional
MOLT-4 = experiment: Tested for the cytotoxicity against the Leukemia cell line MOLT-4, growth inhibition by 50% is reported; format: functional
U-251 = experiment: Tested for the cytotoxicity against the CNS cancer cell line U251,growth inhibition by 50% is reported; format: functional
OVCAR-8 = experiment: Tested for the cytotoxicity against the Ovarian cancer cell line OVCAR-8, growth inhibition by 50% is reported; format: functional
IGROV-1 = experiment: Tested for the cytotoxicity against the Ovarian cancer cell line IGROV1, growth inhibition by 50% is reported; format: functional
NCI-H226 = experiment: Tested for the cytotoxicity against the Non-small cell lung cancer cell line NCI-H226, growth inhibition by 50% is reported; format: functional
Hs-578T = experiment: Tested for the cytotoxicity against the Breast cancer cell line HS-578T, growth inhibition by 50% is reported; format: functional
A549 = experiment: Tested for the cytotoxicity against the Non-small cell lung cancer cell line A-549, growth inhibition by 50% is reported; format: functional
KM12 = experiment: Tested for the cytotoxicity against the colon cancer cell line KM-12, growth inhibition by 50% is reported; format: functional
K562 = experiment: Tested for the cytotoxicity against the Leukemia cell line K-562, growth inhibition by 50% is reported; format: functional
HOP-92 = experiment: Tested for the cytotoxicity against the Non-small cell lung cancer cell line HOP-92, growth inhibition by 50% is reported; format: functional
NCI-H522 = experiment: Tested for the cytotoxicity against the Non-small cell lung cancer cell line NCI-H522 growth inhibition by 50% is reported; format: functional

Structure (SMILES) | GI50 (SR) | GI50 (OVCAR-4) | GI50 (HT-29) | GI50 (HCT-15) | GI50 (LOX IMVI) | GI50 (CCRF-CEM) | GI50 (SF-268) | GI50 (CAKI-1) | GI50 (ACHN) | GI50 (SF-539) | GI50 (NCI-H23) | GI50 (RPMI-8226) | GI50 (HL-60) | GI50 (MDA-MB-435) | GI50 (MOLT-4) | GI50 (U-251) | GI50 (OVCAR-8) | GI50 (IGROV-1) | GI50 (NCI-H226) | GI50 (Hs-578T) | further results
COc1cc(/C=C/c2ccc(S(N)(=O)=O)cc2)cc(OC)c1 | 19.7 µM | 21.2 µM | 16.2 µM | 17.4 µM | 18.2 µM | 19.9 µM | 28.3 µM | 19 µM | 23.5 µM | 18.8 µM | 22.5 µM | 14.3 µM | 18.6 µM | 18.7 µM | 18.6 µM | 17.1 µM | 37.9 µM | 23.1 µM | 12.3 µM | 20.1 µM | GI50 (BT-549): 10.7 µM; GI50 (UACC-62): 15.4 µM; GI50 (A549): 20.7 µM; GI50 (KM12): 20.8 µM; GI50 (K562): 28.7 µM; GI50 (HOP-92): 15 µM
COc1cccc(/C=C/c2ccc(S(N)(=O)=O)cc2)c1 | 5.21 µM | 25 µM | 0.554 µM | 3.6 µM | 30.7 µM | 13.6 µM | 17.1 µM | 14.7 µM | 7.12 µM | 16.8 µM | 21 µM | 3.81 µM | 10.4 µM | 17.4 µM | 26.8 µM | 5.54 µM | 31.6 µM | 2.5 µM | 2.91 µM | 25.5 µM | GI50 (BT-549): 6.38 µM; GI50 (UACC-62): 14 µM; GI50 (A549): 11 µM; GI50 (KM12): 12.2 µM; GI50 (K562): 20.6 µM; GI50 (HOP-92): 3.29 µM
NS(=O)(=O)c1ccc(/C=C/c2ccc(O)c(O)c2)cc1 | 12.7 µM | 11.6 µM | 35.4 µM | 13.9 µM | 29.9 µM | 4.79 µM | 18.2 µM | 29.1 µM | 20.4 µM | 14.2 µM | 25.9 µM | 9.16 µM | 16.3 µM | 16.8 µM | 12.8 µM | 16.3 µM | 16.7 µM | 4.49 µM | 14 µM | 25.6 µM | GI50 (NCI-H522): 2.25 µM; GI50 (BT-549): 4.13 µM; GI50 (UACC-62): 23.3 µM; GI50 (A549): 22.3 µM; GI50 (KM12): 18.2 µM; GI50 (K562): 35.3 µM; GI50 (HOP-92): 15.8 µM
NS(=O)(=O)c1ccc(/C=C/c2cccc(O)c2)cc1 | 17.8 µM | 27.8 µM | 43.3 µM | 22.8 µM | 43 µM | 16.1 µM | 65.6 µM | 50.2 µM | 25.8 µM | 36.7 µM | 46.1 µM | 18.9 µM | 41.4 µM | 25.8 µM | 20 µM | 21.1 µM | 25.2 µM | 30.2 µM | 25.8 µM | 61 µM | GI50 (NCI-H522): 12.2 µM; GI50 (UACC-62): 18.6 µM; GI50 (A549): 19.8 µM; GI50 (KM12): 35.4 µM; GI50 (K562): 43.4 µM; GI50 (HOP-92): 17.4 µM
NS(=O)(=O)c1ccc(/C=C/c2ccc(F)cc2)cc1 | 10.5 µM | 34.4 µM | 29.4 µM | 9.98 µM | 26.7 µM | 62 µM | 20.5 µM | 36.3 µM | 2.97 µM | 29.1 µM | 45.1 µM | 42.3 µM | 37.3 µM | 27 µM | 12.9 µM | 7.93 µM | 15.2 µM | 20.9 µM | 7.97 µM | 23.7 µM | GI50 (NCI-H522): 4.81 µM; GI50 (BT-549): 0.205 µM; GI50 (A549): 8.93 µM; GI50 (KM12): 16.3 µM; GI50 (K562): 14.9 µM; GI50 (HOP-92): 33.2 µM
NS(=O)(=O)c1ccc(/C=C/c2ccc(O)cc2)cc1 | 4.68 µM | 36.9 µM | 17.8 µM | 24.6 µM | 19.1 µM | 4.5 µM | 31.5 µM | 5.59 µM | 2.28 µM | 7.4 µM | 16.9 µM | 7.09 µM | 4.35 µM | 20.3 µM | 22.6 µM | 15 µM | 4.81 µM | 20.3 µM | 11.1 µM | 28.9 µM | GI50 (NCI-H522): 13.8 µM; GI50 (UACC-62): 3.4 µM; GI50 (A549): 13.9 µM; GI50 (KM12): 11.1 µM; GI50 (K562): 24.9 µM; GI50 (HOP-92): 31.5 µM
CN(C)c1ccc(/C=C/c2ccc(S(N)(=O)=O)cc2)cc1 | 8.58 µM | 3.34 µM | 30.8 µM | 17.1 µM | 18.7 µM | 46 µM | 7.16 µM | 50.3 µM | 13.6 µM | 11.7 µM | 14.2 µM | 11.6 µM | > 100 µM | 7.63 µM | > 100 µM | 11.2 µM | 4.95 µM | 13.4 µM | 12.1 µM | 3.03 µM | GI50 (NCI-H522): 6.88 µM; GI50 (BT-549): 2.14 µM; GI50 (A549): 10.1 µM; GI50 (KM12): 8.28 µM; GI50 (K562): > 100 µM; GI50 (HOP-92): 16.6 µM

From ChEMBL document CHEMBL1135261, “Antitumor agents. Part 3: synthesis and cytotoxicity of new trans-stilbene benzenesulfonamide derivatives” (2002)
